The text below walks through data of ChEMBL document CHEMBL5625248, “Identification of unique indolylcyanoethylenyl sulfonylanilines as novel structural scaffolds of potential antibacterial agents” (Eur J Med Chem, 2023).

Holding throughout (format): functional
One assay deals with Acinetobacter baumannii. Kind of assay: Antibacterial activity against Acinetobacter baumannii assessed as inhibition of bacterial growth incubated for 18 hrs by two fold broth microdilution assay.
Another assay has as its system Enterococcus faecalis. Kind of assay: Antibacterial activity against Enterococcus faecalis assessed as inhibition of bacterial growth incubated for 18 hrs by two fold broth microdilution assay.
The test system of assay [1] is Staphylococcus aureus. Nature of the assay: Antibacterial activity against Staphylococcus aureus ATCC 25923 assessed as inhibition of bacterial growth incubated for 18 hrs by two fold broth microdilution assay.
Another assay relates to Klebsiella pneumoniae. Nature of the assay: Antibacterial activity against Klebsiella pneumoniae assessed as inhibition of bacterial growth incubated for 18 hrs by two fold broth microdilution assay.
Assay [2] relates to Pseudomonas aeruginosa. Nature of the assay: Antibacterial activity against Pseudomonas aeruginosa ATCC 27853 assessed as inhibition of bacterial growth incubated for 18 hrs by two fold broth microdilution assay.
In assay [3] the test system is Staphylococcus aureus. Kind of assay: Antibacterial activity against Staphylococcus aureus ATCC 29213 assessed as inhibition of bacterial growth incubated for 18 hrs by two fold broth microdilution assay.
The subject of assay [4] is Staphylococcus aureus. Nature of the assay: Antibacterial activity against Staphylococcus aureus assessed as inhibition of bacterial growth incubated for 18 hrs by two fold broth microdilution assay.
Assay [5] relates to Escherichia coli. Kind of assay: Antibacterial activity against Escherichia coli ATCC 25922 assessed as inhibition of bacterial growth incubated for 18 hrs by two fold broth microdilution assay.
For assay [6], the system named is Escherichia coli. Kind of assay: Antibacterial activity against Escherichia coli assessed as inhibition of bacterial growth incubated for 18 hrs by two fold broth microdilution assay.
For assay [7], the system named is Staphylococcus aureus. Kind of assay: Antibacterial activity against methicilin-resistant Staphylococcus aureus N315 assessed as inhibition of bacterial growth incubated for 18 hrs by two fold broth microdilution assay.
Assay [8] deals with Pseudomonas aeruginosa. Nature of the assay: Antibacterial activity against Pseudomonas aeruginosa assessed as inhibition of bacterial growth incubated for 18 hrs by two fold broth microdilution assay.

Converted amounts (≈) assume the structure as drawn.

Take `CCCCCn1cc(/C=C(\C#N)S(=O)(=O)c2ccc(NC(C)=O)cc2)c2ccccc21`: the MIC was determined as 64 µg/mL (≈ 147 µM) in the assay on Acinetobacter baumannii; 256 µg/mL (≈ 588 µM) in the assay on Enterococcus faecalis; 8 µg/mL (≈ 18.4 µM) in the assay on Staphylococcus aureus [1]; 8 µg/mL (≈ 18.4 µM) with Klebsiella pneumoniae; 64 µg/mL (≈ 147 µM) with Pseudomonas aeruginosa [2]; 16 µg/mL (≈ 36.7 µM) in the assay on Staphylococcus aureus [3]. For the same molecule, the MIC in the assay on Staphylococcus aureus [4] amounted to 128 µg/mL (≈ 294 µM); in the assay with Escherichia coli [5], 16 µg/mL (≈ 36.7 µM); in the assay with Escherichia coli [6] it was 64 µg/mL (≈ 147 µM); with Staphylococcus aureus [7] it was 256 µg/mL (≈ 588 µM); in the assay on Pseudomonas aeruginosa [8] it was 64 µg/mL (≈ 147 µM).

As for `CC(=O)Nc1ccc(S(=O)(=O)/C(C#N)=C/c2cn(CCN(C)C)c3ccccc23)cc1`, the minimal inhibitory concentration (MIC) with Acinetobacter baumannii was 32 µg/mL (≈ 73.3 µM); with Enterococcus faecalis, 256 µg/mL (≈ 586 µM); with Staphylococcus aureus [1], 16 µg/mL (≈ 36.7 µM); in the assay with Klebsiella pneumoniae, 8 µg/mL (≈ 18.3 µM); with Pseudomonas aeruginosa [2], 16 µg/mL (≈ 36.7 µM); in the assay on Staphylococcus aureus [3], 2 µg/mL (≈ 4.58 µM). In addition, the MIC is 128 µg/mL (≈ 293 µM) in the assay on Staphylococcus aureus [4]; 64 µg/mL (≈ 147 µM) in the assay with Escherichia coli [5]; 128 µg/mL (≈ 293 µM) in the assay with Escherichia coli [6]; 128 µg/mL (≈ 293 µM) with Staphylococcus aureus [7]; 64 µg/mL (≈ 147 µM) in the assay on Pseudomonas aeruginosa [8].

For `CC(=O)Nc1ccc(S(=O)(=O)/C(C#N)=C/c2c[nH]c3ccc([N+](=O)[O-])cc23)cc1`, the MIC turned out to be 8 µg/mL (≈ 19.5 µM) in the assay with Acinetobacter baumannii; 32 µg/mL (≈ 78 µM) in the assay with Enterococcus faecalis; 128 µg/mL (≈ 312 µM) in the assay on Staphylococcus aureus [1]; 64 µg/mL (≈ 156 µM) in the assay with Klebsiella pneumoniae; 32 µg/mL (≈ 78 µM) with Pseudomonas aeruginosa [2]; 32 µg/mL (≈ 78 µM) in the assay on Staphylococcus aureus [3]. Further, the MIC with Staphylococcus aureus [4] stood at 32 µg/mL (≈ 78 µM); in the assay with Escherichia coli [5], 64 µg/mL (≈ 156 µM); with Escherichia coli [6], 64 µg/mL (≈ 156 µM); with Staphylococcus aureus [7] it was 64 µg/mL (≈ 156 µM); in the assay with Pseudomonas aeruginosa [8], 64 µg/mL (≈ 156 µM).

Regarding `CC(=O)Nc1ccc(S(=O)(=O)/C(C#N)=C/c2cn(CC(=O)N3CCOCC3)c3ccccc23)cc1`, the MIC with Acinetobacter baumannii came out at 128 µg/mL (≈ 260 µM); in the assay with Enterococcus faecalis it was 64 µg/mL (≈ 130 µM); in the assay with Staphylococcus aureus [1], 64 µg/mL (≈ 130 µM); in the assay with Klebsiella pneumoniae it was 128 µg/mL (≈ 260 µM); with Pseudomonas aeruginosa [2], 256 µg/mL (≈ 520 µM); in the assay with Staphylococcus aureus [3], 2 µg/mL (≈ 4.06 µM). For the same molecule, the MIC in the assay on Staphylococcus aureus [4] was 256 µg/mL (≈ 520 µM); in the assay with Escherichia coli [5], 128 µg/mL (≈ 260 µM); in the assay on Escherichia coli [6] it was 256 µg/mL (≈ 520 µM); in the assay with Staphylococcus aureus [7] it was 16 µg/mL (≈ 32.5 µM); with Pseudomonas aeruginosa [8], 64 µg/mL (≈ 130 µM).

Consider `CC(=O)Nc1ccc(S(=O)(=O)/C(C#N)=C/c2cn(CCO)c3ccccc23)cc1`, for which the MIC in the assay on Acinetobacter baumannii amounted to 32 µg/mL (≈ 78.2 µM); with Enterococcus faecalis, 4 µg/mL (≈ 9.77 µM); in the assay with Staphylococcus aureus [1], 2 µg/mL (≈ 4.88 µM); in the assay with Klebsiella pneumoniae it was 2 µg/mL (≈ 4.88 µM); in the assay with Pseudomonas aeruginosa [2], 8 µg/mL (≈ 19.5 µM); with Staphylococcus aureus [3] it was 2 µg/mL (≈ 4.88 µM). The MIC in the assay on Staphylococcus aureus [4] stood at 2 µg/mL (≈ 4.88 µM); in the assay on Escherichia coli [5], 1 µg/mL (≈ 2.44 µM); in the assay with Escherichia coli [6], 4 µg/mL (≈ 9.77 µM); in the assay with Staphylococcus aureus [7] it was 32 µg/mL (≈ 78.2 µM); in the assay with Pseudomonas aeruginosa [8], 4 µg/mL (≈ 9.77 µM).

For the molecule `N#C/C(=C\c1cn(Cc2cccc(F)c2)c2ccccc12)S(=O)(=O)c1ccc(N)cc1`, the MIC in the assay on Acinetobacter baumannii was 8 µg/mL (≈ 18.5 µM); in the assay on Enterococcus faecalis it was 128 µg/mL (≈ 297 µM); with Staphylococcus aureus [1], 64 µg/mL (≈ 148 µM); in the assay on Klebsiella pneumoniae it was 4 µg/mL (≈ 9.27 µM); with Pseudomonas aeruginosa [2] it was 64 µg/mL (≈ 148 µM); with Staphylococcus aureus [3], 64 µg/mL (≈ 148 µM). Moreover, the MIC worked out at 128 µg/mL (≈ 297 µM) in the assay with Staphylococcus aureus [4]; 64 µg/mL (≈ 148 µM) with Escherichia coli [5]; 256 µg/mL (≈ 593 µM) in the assay on Escherichia coli [6]; 256 µg/mL (≈ 593 µM) in the assay on Staphylococcus aureus [7]; 64 µg/mL (≈ 148 µM) in the assay with Pseudomonas aeruginosa [8].

Regarding `N#C/C(=C\c1cn(Cc2ccccc2F)c2ccccc12)S(=O)(=O)c1ccc(N)cc1`, the MIC came out at 256 µg/mL (≈ 593 µM) in the assay with Acinetobacter baumannii; 64 µg/mL (≈ 148 µM) in the assay on Enterococcus faecalis; 8 µg/mL (≈ 18.5 µM) with Staphylococcus aureus [1]; 128 µg/mL (≈ 297 µM) in the assay with Klebsiella pneumoniae; 128 µg/mL (≈ 297 µM) with Pseudomonas aeruginosa [2]; 4 µg/mL (≈ 9.27 µM) in the assay with Staphylococcus aureus [3]. Besides, the minimum inhibitory concentration (MIC) with Staphylococcus aureus [4] stood at 256 µg/mL (≈ 593 µM); in the assay on Escherichia coli [5], 8 µg/mL (≈ 18.5 µM); in the assay on Escherichia coli [6] it was 256 µg/mL (≈ 593 µM); in the assay with Staphylococcus aureus [7], 64 µg/mL (≈ 148 µM); in the assay on Pseudomonas aeruginosa [8], 64 µg/mL (≈ 148 µM).

In the case of `CC(=O)Nc1ccc(S(=O)(=O)/C(C#N)=C/c2cn(Cc3ccc(Cl)cc3Cl)c3ccccc23)cc1`, the MIC amounted to 8 µg/mL (≈ 15.3 µM) in the assay on Acinetobacter baumannii; 256 µg/mL (≈ 488 µM) with Enterococcus faecalis; 64 µg/mL (≈ 122 µM) with Staphylococcus aureus [1]; 4 µg/mL (≈ 7.63 µM) with Klebsiella pneumoniae; 32 µg/mL (≈ 61 µM) with Pseudomonas aeruginosa [2]; 8 µg/mL (≈ 15.3 µM) with Staphylococcus aureus [3]. The MIC in the assay with Staphylococcus aureus [4] came out at 16 µg/mL (≈ 30.5 µM); with Escherichia coli [5], 64 µg/mL (≈ 122 µM); in the assay on Escherichia coli [6], 256 µg/mL (≈ 488 µM); with Staphylococcus aureus [7], 64 µg/mL (≈ 122 µM); in the assay with Pseudomonas aeruginosa [8], 64 µg/mL (≈ 122 µM).

Regarding `CC(=O)Nc1ccc(S(=O)(=O)/C(C#N)=C/c2cn(Cc3ccc(F)cc3F)c3ccccc23)cc1`, the MIC in the assay with Acinetobacter baumannii was found to be 16 µg/mL (≈ 32.6 µM); with Enterococcus faecalis it was 256 µg/mL (≈ 521 µM); with Staphylococcus aureus [1] it was 32 µg/mL (≈ 65.1 µM); in the assay on Klebsiella pneumoniae it was 256 µg/mL (≈ 521 µM); in the assay with Pseudomonas aeruginosa [2] it was 64 µg/mL (≈ 130 µM); in the assay with Staphylococcus aureus [3], 32 µg/mL (≈ 65.1 µM). The MIC amounted to 8 µg/mL (≈ 16.3 µM) in the assay on Staphylococcus aureus [4]; 32 µg/mL (≈ 65.1 µM) in the assay with Escherichia coli [5]; 128 µg/mL (≈ 260 µM) in the assay with Escherichia coli [6]; 64 µg/mL (≈ 130 µM) with Staphylococcus aureus [7]; 64 µg/mL (≈ 130 µM) in the assay with Pseudomonas aeruginosa [8].
